Assay [1] addresses T1, DNAJA1 (Homo sapiens, UniProt P31689).
T1 construct: DNAJA1-107 (residues 1 to 107, J-domain and linker, N-terminal 6x-His tag)
Nature of the assay: 1D […] NMR line broadening and 2D 1H-15N HSQC chemical shift perturbation. It is filed as binding.

The target in assay [2] is T1, DNAJA1. Briefly: ITC; STD NMR and 2D 1H-15N HSQC chemical shift perturbation. It is filed as binding. (ITC needs no label: the signal is the heat of the interaction.)
Assay [3] addresses T2, DNAJA1-107 (residues 1 to 107 of human DnaJ homolog subfamily A member 1) (human, UniProt P31689 1-107).
T2 construct: The methods name an N-terminal 6x-histidine tag; 15N-labelled for the NMR experiment with ANT3; source: for the pull-down immobilised on cobalt resin; not shown: His6, N-terminal, kept
Nature of the assay: NMR titration; 15N-DNAJA1-107 mixed with ANT3 (232-272) at DNAJA1-107:ANT3 molar ratios 10:1, 5:1 and 1:1 (50 uM each at equal molarity); 10 mM Tris-HCl, 1 mM EDTA, 6% trehalose, pH 8.0; 2D 1H-15N HSQC; immediate, concentration-dependent precipitation on mixing taken as the sign of interaction. The following applies: both partners purified.

Consider `Nc1ncnc2c1ncn2[C@@H]1O[C@H](COP(=O)(O)OP(=O)(O)O)[C@@H](O)[C@H]1O` [ADP], for which, on DNAJA1 [1], the “1D 31P NMR line broadening and 2D 1H-15N HSQC chemical shift perturbation” value was “ADP, O-phospho-L-serine, O-phospho-L-tyrosine, and dihydroxyacetone phosphate exhibited specific binding to DNAJA1-107”.
Broadly, the Kd is the free concentration of one partner at which half of the binding sites on the other are occupied at equilibrium, for simple one-to-one binding. For the molecule `CCOc1ccc(-c2cc(OC(=O)c3cccs3)c3c(C)oc(C)c3c(=O)c2)cc1` [compound 7727968, 6-(4-ethoxyphenyl)-1,3-dimethyl-4-oxo-4H-cyclohepta[c]furan-8-yl 2-thiophenecarboxylate], the Kd on DNAJA1 [2] is 10 µM.
On to `O=C(c1ccc(Br)s1)N1CCN(c2ccc(F)cc2)CC1` [compound 9101204, 1-[(5-bromo-2-thienyl)carbonyl]-4-(4-fluorophenyl)piperazine], for which the Kd at DNAJA1 [2] turned out to be 0.1 ± 0.3 µM.

B1: Recombinant Human ADP/ATP translocase 3 (ANT3), amino acids 232-272 (domain or fragment, UniProt P12236 232-272, looked up)
chain: DTVRRRMMMQSGRKGADIMYTGTVDCWRKIFRDEGGKAFFK
notes: ADP/ATP translocase 3 (ANT3), human, amino acids 232-272; The construct included an N-terminal 6xHis-KSI tag to aid purification and solubility; also called ANT3 construct; source: bought: CUSABIO, catalog number CSB-EP021520HU1
For B1, in assay [3], the binding result is recorded as “binds”.

The values are drawn from publication PMC9599757, “Leveraging the Structure of DNAJA1 to Discover Novel Potential Pancreatic Cancer Therapies” (Biomolecules, 2022).
